Experimental data from the supplement of paper PMC10883282.

What was measured:
Experiment in all cases: relative viability vs DMSO control (72 h) (fraction); higher = more viable cells
[1] = test system: KHOS-240S
Procedure, shortened: (§1)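 Relative viability was measured with ATPLite and expressed as percent growth, averaged across up to triplicate wells. Sarcoma cell lines had been seeded in 384-well plates to reach 80–90% confluence, dosed after 24 h, and incubated 72 h at 37 °C, 5% CO2. All data were rescaled on a scale where 1 is full and 0 is none.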

[2] = test system: RD
Procedure, shortened: as §1

[3] = test system: SYO-1
Procedure, shortened: as §1

[4] = test system: MES-SA
Procedure, shortened: as §1

[5] = test system: SW1353
Procedure, shortened: as §1

[6] = test system: SW982
Procedure, shortened: as §1

[7] = test system: VA-ES-BJ
Procedure, shortened: as §1

[8] = test system: HT1080
Procedure, shortened: as §1

[9] = test system: SK-LMS-1
Procedure, shortened: as §1

[10] = test system: RD-ES
Procedure, shortened: as §1

[11] = test system: G401
Procedure, shortened: as §1

[12] = test system: SK-ES-1
Procedure, shortened: as §1

Cc1[nH]c(/C=C2\C(=O)Nc3ccc(F)cc32)c(C)c1C(=O)NCCN1CCCC1 [Toceranib]
Details	relative viability
[1], 68 pM	1.08
[1], 0.000203 µM	1.105
[1], 0.0006 µM	1.08
[1], 0.0018 µM	1.11
[1], 0.0055 µM	1.03
[1], 0.0165 µM	0.989
[1], 0.0494 µM	0.974
[1], 0.1481 µM	0.941
[1], 0.444 µM	0.865
[1], 1.333 µM	0.705
[1], 4 µM	0.491
[2], 68 pM	1.06
[2], 0.000203 µM	1.09
[2], 0.0006 µM	1.14
[2], 0.0018 µM	1.07
[2], 0.0055 µM	1.08
[2], 0.0165 µM	1.08
[2], 0.0494 µM	1.11
[2], 0.1481 µM	1.08
[2], 0.444 µM	1.08
[2], 1.333 µM	1.05
[2], 4 µM	0.786
[3], 68 pM	0.931
[3], 0.000203 µM	0.887
[3], 0.0006 µM	0.835
[3], 0.0018 µM	0.806
[3], 0.0055 µM	0.721
[3], 0.0165 µM	0.64
[3], 0.0494 µM	0.587
[3], 0.1481 µM	0.603
[3], 0.444 µM	0.576
[3], 1.333 µM	0.482
[3], 4 µM	0.357
[4], 68 pM	0.932
[4], 0.000203 µM	0.9214
[4], 0.0006 µM	0.926
[4], 0.0018 µM	0.899
[4], 0.0055 µM	0.915
[4], 0.0165 µM	0.919
[4], 0.0494 µM	0.9
[4], 0.1481 µM	0.919
[4], 0.444 µM	0.884
[4], 1.333 µM	0.751
[4], 4 µM	0.44
[5], 68 pM	1.07
[5], 0.000203 µM	1.02
[5], 0.0006 µM	1.02
[5], 0.0018 µM	0.987
[5], 0.0055 µM	0.994
[5], 0.0165 µM	0.973
[5], 0.0494 µM	0.964
[5], 0.1481 µM	0.928
[5], 0.444 µM	0.934
[5], 1.333 µM	0.96
[5], 4 µM	0.893
[6], 68 pM	0.951
[6], 0.000203 µM	0.984
[6], 0.0006 µM	0.962
[6], 0.0018 µM	1.01
[6], 0.0055 µM	0.985
[6], 0.0165 µM	1
[6], 0.0494 µM	0.929
[6], 0.1481 µM	0.993
[6], 0.444 µM	0.948
[6], 1.333 µM	0.571
[6], 4 µM	0.31
[7], 68 pM	1.07
[7], 0.000203 µM	1.05
[7], 0.0006 µM	1.04
[7], 0.0018 µM	1.03
[7], 0.0055 µM	1.04
[7], 0.0165 µM	1.01
[7], 0.0494 µM	0.987
[7], 0.1481 µM	1
[7], 0.444 µM	0.961
[7], 1.333 µM	0.859
[7], 4 µM	0.675
[8], 68 pM	1.09
[8], 0.000203 µM	1.06
[8], 0.0006 µM	1.116
[8], 0.0018 µM	1.07
[8], 0.0055 µM	1.076
[8], 0.0165 µM	1.04
[8], 0.0494 µM	1.09
[8], 0.1481 µM	1
[8], 0.444 µM	1.1
[8], 1.333 µM	1.14
[8], 4 µM	0.868
[9], 68 pM	0.939
[9], 0.000203 µM	0.944
[9], 0.0006 µM	0.972
[9], 0.0018 µM	0.968
[9], 0.0055 µM	0.941
[9], 0.0165 µM	0.946
[9], 0.0494 µM	0.906
[9], 0.1481 µM	0.921
[9], 0.444 µM	0.893
[9], 1.333 µM	0.81
[9], 4 µM	0.717
[10], 68 pM	0.976
[10], 0.000203 µM	0.948
[10], 0.0006 µM	0.964
[10], 0.0018 µM	0.943
[10], 0.0055 µM	0.9493
[10], 0.0165 µM	0.937
[10], 0.0494 µM	0.924
[10], 0.1481 µM	0.902
[10], 0.444 µM	0.821
[10], 1.333 µM	0.615
[10], 4 µM	0.176
[11], 68 pM	0.991
[11], 0.000203 µM	0.978
[11], 0.0006 µM	0.979
[11], 0.0018 µM	0.983
[11], 0.0055 µM	0.974
[11], 0.0165 µM	0.918
[11], 0.0494 µM	0.941
[11], 0.1481 µM	0.924
[11], 0.444 µM	0.938
[11], 1.333 µM	0.912
[11], 4 µM	0.787
[12], 68 pM	1.01
[12], 0.000203 µM	1.02
[12], 0.0006 µM	1
[12], 0.0018 µM	0.995
[12], 0.0055 µM	0.996
[12], 0.0165 µM	0.98
[12], 0.0494 µM	0.972
[12], 0.1481 µM	0.913
[12], 0.444 µM	0.802
[12], 1.333 µM	0.43
[12], 4 µM	0.165
